Laboratory results: patent US20240301319A1, “PERFUMING COMPOSITIONS” (FIRMNICH SA, priority 2017, published 2024)

Columns and labels:
[1] = Odor threshold and odor value of perfuming compounds (Tables 4 to 10)
[2] = Volatility of perfuming compounds (Tables 4 to 10), with top/middle/bottom note type; assay type: physicochemical
Method: In some aspects, the first perfume accord comprises perfuming compounds having a volatility ranging from 70,000 to 100 μg/l in air. In some aspects, perfuming compounds having a volatility ranging from 70,000 to 100 μg/l in air are referred to as “top notes”.
In some aspects, the second perfume accord comprises perfuming compounds having a volatility ranging from 99 to 50 μg/l in air. In some aspects, perfuming compounds having a volatility ranging from 99 to 50 μg/l in air are referred to as “middle notes”.
In some aspects, the third perfume accord comprises perfuming compounds having a volatility ranging from 49 to 0.1 μg/l in air. In some aspects, perfuming compounds having a volatility ranging from 49 to 0.1 μg/l in air are referred to as “bottom notes”.
Tables 4 to 10 describe top, middle and bottom note perfuming compounds for watery, green, fruity, citrus, sweet, gourmand and woody notes respectively.

[3] = Table 10, perfuming compounds having a woody note, note type by volatility
[4] = Table 8, perfuming compounds having a sweet note
[5] = Table 8, perfuming compounds having a sweet note, note type by volatility
[6] = Table 9, perfuming compounds having a gourmand note, note type by volatility
[7] = perfuming compounds having a green note
[8] = Table 6, perfuming compounds having a fruity note
[9] = Table 6, perfuming compounds having a fruity note, note type by volatility
[10] = note type (Top/Middle/Bottom) by volatility, perfuming compounds having a green note
[11] = Table 7, citrus note, equals volatility divided by odor threshold
[12] = Table 7, citrus note, top, middle or bottom note

CCCC(O)CC[C@@H]1[C@@H](C)CCCC1(C)C (mixture of isomers)
Odor Threshold ([1]; Table 10, woody note): 5.92E−04 μg/l air | Type [2, 3]: Bottom | Volatility ([2]; Table 10, woody note): 2.34 μg/l air

CC(=O)O[C@@H]1C(C)(C)CCC[C@]12CC=C(C)C[C@H]2C (racemic)
Odor Threshold ([1]; Table 10, woody note): 3.79E−03 μg/l air | Type [2, 3]: Bottom | Volatility ([2]; Table 10, woody note): 8.25 μg/l air

C/C=C/C(=O)[C@@H]1[C@@H](C)C=CCC1(C)C (racemic)
Odor Threshold [1, 4]: 1.70E−05 μg/l air | Odor Value [1, 4]: 8.44E+06 | Odor Threshold ([1]; Table 9, gourmand note): 1.70E−05 μg/l air | Volatility [2, 4]: 143.53 μg/l air | Type [2, 5]: Top | Volatility ([2]; Table 9, gourmand note): 143.53 μg/l air | Type [2, 6]: Top

CC(=O)O[C@@H]1CC[C@@H]2C(C)(C)CCC[C@@]2(C)C1 (racemic)
Odor Threshold ([1]; Table 10, woody note): 4.19E−04 μg/l air | Type [2, 3]: Bottom | Volatility ([2]; Table 10, woody note): 14.41 μg/l air

CC1CC[C@@]2(O1)C(C)(C)CCC[C@@]2(C)O (mixture of isomers)
Odor Threshold ([1]; Table 10, woody note): 5.15E−04 μg/l air | Type [2, 3]: Middle | Volatility ([2]; Table 10, woody note): 84.04 μg/l air

CCC(O)COC1CCCCC1C(C)(C)C (racemic)
Odor Threshold ([1]; Table 10, woody note): 3.53E−02 μg/l air | Type [2, 3]: Top | Volatility ([2]; Table 10, woody note): 205.05 μg/l air

CCCC(O)CCC1C(C)CCC(C)C1(C)C (racemic)
Odor Threshold ([1]; Table 10, woody note): 4.05E−04 μg/l air | Type [2, 3]: Bottom | Volatility ([2]; Table 10, woody note): 3.42 μg/l air

C=C1C2CCC(C)(OCC)C1CCC2(C)C (racemic)
Odor Threshold ([1]; Table 10, woody note): 1.37E−01 μg/l air | Type [2, 3]: Top | Volatility ([2]; Table 10, woody note): 135.00 μg/l air

CCC(=CCC1CC=C(C)C1(C)C)CO (racemic)
Odor Threshold ([1]; Table 10, woody note): 7.80E−05 μg/l air | Type [2, 3]: Bottom | Volatility ([2]; Table 10, woody note): 3.69 μg/l air

CC1CC(C)(c2ccccc2)CO1 (racemic)
Odor Threshold (μg/l air) [1, 7]: 5.04E−04 μg/l air | Volatility [2, 8]: 263.73 μg/l air | Type [2, 9]: TOP (perfuming compounds having a volatility ranging from 70,000 to 100 μg/l in air are referred to as “top notes”) | Type [2, 10]: Top | Volatility (μg/l air) [2, 7]: 263.73 μg/l air

C=CC(C)CC(=O)CC(C)C (racemic)
Odor Threshold (μg/l air) ([1]; Table 7, citrus note): 2.78E−01 μg/l air | Odor Value [1, 11]: 1.51E+04 | Volatility [2, 8]: 4203.89 μg/l air | Type [2, 9]: TOP (perfuming compounds having a volatility ranging from 70,000 to 100 μg/l in air are referred to as “top notes”) | Volatility (μg/l air) ([2]; Table 7, citrus note): 4203.89 μg/l air | Type [2, 12]: Top

CC1=CCC(CCC(C)C(C)O)C1(C)C (racemic)
Odor Threshold ([1]; Table 10, woody note): 1.52E−03 μg/l air | Type [2, 3]: Bottom | Volatility ([2]; Table 10, woody note): 5.22 μg/l air

CC1=CCC2C(C1)C1CC2C2(C1)OC2C (racemic)
Odor Threshold [1, 8]: 9.93E−04 μg/l air | Odor Value [1, 8]: 3.70E+04 | Odor Threshold (μg/l air) [1, 7]: 9.93E−04 μg/l air | Volatility [2, 8]: 36.76 μg/l air | Type [2, 9]: Bottom | Type [2, 10]: Bottom | Volatility (μg/l air) [2, 7]: 36.76 μg/l air

CC1CCC2C(C)(C)C3CC12CCC3(C)O (racemic)
Odor Threshold ([1]; Table 10, woody note): 3.38E−02 μg/l air | Type [2, 3]: Bottom | Volatility ([2]; Table 10, woody note): 11.83 μg/l air

CC(C)CCCC(C)CCO (racemic)
Odor Threshold (μg/l air) ([1]; Table 7, citrus note): 4.59E−02 μg/l air | Odor Value [1, 11]: 1.67E+03 | Volatility (μg/l air) ([2]; Table 7, citrus note): 76.57 μg/l air | Type [2, 12]: Middle

CCC(C)(O)CCCC(C)C (racemic)
Odor Threshold (μg/l air) [1, 7]: 3.45E−03 μg/l air | Type [2, 10]: Top | Volatility (μg/l air) [2, 7]: 421.15 μg/l air

C=C(C)CC(C)OC(=O)C(C)C (racemic)
Odor Threshold [1, 4]: 2.26E−01 μg/l air | Odor Value [1, 4]: 4.39E+04 | Odor Threshold ([1]; Table 9, gourmand note): 2.26E−01 μg/l air | Volatility [2, 8]: 9902.98 μg/l air | Type [2, 9]: TOP (perfuming compounds having a volatility ranging from 70,000 to 100 μg/l in air are referred to as “top notes”) | Volatility [2, 4]: 9902.98 μg/l air | Type [2, 5]: Top | Volatility ([2]; Table 9, gourmand note): 9902.98 μg/l air | Type [2, 6]: Top

CC1COCc2cc3c(cc21)C(C)(C)C(C)C3(C)C (racemic)
Odor Threshold [1, 8]: 2.62E−04 μg/l air | Odor Value [1, 8]: 6.08E+03 | Volatility [2, 8]: 1.59 μg/l air | Type [2, 9]: Bottom

CC1OCCC12NCCS2 (racemic)
Odor Threshold [1, 4]: 2.53E−06 μg/l air | Odor Value [1, 4]: 2.07E+07 | Volatility [2, 4]: 52.47 μg/l air | Type [2, 5]: Middle

COC(C)(C)CCCC(C)C(C)O (racemic)
Odor Threshold ([1]; Table 10, woody note): 2.66E−02 μg/l air | Type [2, 3]: Bottom | Volatility ([2]; Table 10, woody note): 35.54 μg/l air

COC(=O)C1C(C)=CCCC1(C)C (racemic)
Odor Threshold (μg/l air) [1, 7]: 1.06E−02 μg/l air | Type [2, 10]: Top | Volatility (μg/l air) [2, 7]: 2010.91 μg/l air

CC1CCCC2(C)CCCCC12O (racemic)
Odor Threshold (μg/l air) [1, 7]: 5.32E−06 μg/l air | Type [2, 10]: Top | Volatility (μg/l air) [2, 7]: 330.48 μg/l air

CC1=C[C@H](C)[C@H]2[C@H](CCC(C)(C)[C@H]2O)C1 (racemic)
Odor Threshold [1, 8]: 8.15E−04 μg/l air | Odor Value [1, 8]: 6.00E+04 | Odor Threshold (μg/l air) [1, 7]: 8.15E−04 μg/l air | Volatility [2, 8]: 48.90 μg/l air | Type [2, 9]: Bottom | Type [2, 10]: Bottom | Volatility (μg/l air) [2, 7]: 48.90 μg/l air

C/C=C/C(=O)C1C(C)=CCCC1(C)C (racemic)
Odor Threshold [1, 8]: 1.04E−04 μg/l air | Odor Threshold [1, 4]: 1.04E−04 μg/l air | Odor Value [1, 4]: 1.06E+06 | Odor Threshold ([1]; Table 10, woody note): 1.04E−04 μg/l air | Odor Threshold (μg/l air) [1, 7]: 1.04E−04 μg/l air | Type [2, 9]: TOP (perfuming compounds having a volatility ranging from 70,000 to 100 μg/l in air are referred to as “top notes”) | Volatility [2, 4]: 110.53 μg/l air | Type [2, 5]: Top | Type [2, 3]: Top | Volatility ([2]; Table 10, woody note): 110.53 μg/l air | Type [2, 10]: Top | Volatility (μg/l air) [2, 7]: 110.53 μg/l air

CC(=O)/C(C)=C(/C)C(C)C(C)(C)C (racemic)
Odor Threshold ([1]; Table 10, woody note): 7.24E−02 μg/l air | Type [2, 3]: Top | Volatility ([2]; Table 10, woody note): 659.22 μg/l air

CC(C)=CCCC(C)CCOCC=O (racemic)
Odor Threshold (μg/l air) ([1]; Table 7, citrus note): 8.95E−04 μg/l air | Odor Value [1, 11]: 5.26E+03 | Volatility (μg/l air) ([2]; Table 7, citrus note): 4.70 μg/l air | Type [2, 12]: Bottom

C=C1CCCC(C)(C)C1C(=O)/C=C/C (racemic)
Odor Threshold [1, 4]: 3.73E−03 μg/l air | Odor Value [1, 4]: 4.10E+04 | Odor Threshold ([1]; Table 9, gourmand note): 3.73E−03 μg/l air | Volatility [2, 8]: 152.99 μg/l air | Type [2, 9]: TOP (perfuming compounds having a volatility ranging from 70,000 to 100 μg/l in air are referred to as “top notes”) | Volatility [2, 4]: 152.99 μg/l air | Type [2, 5]: Top | Volatility ([2]; Table 9, gourmand note): 152.99 μg/l air | Type [2, 6]: Top

CC(=O)/C(C)=C/C1C(C)=CCCC1(C)C (racemic)
Odor Threshold [1, 8]: 1.92E−04 μg/l air | Odor Value [1, 8]: 1.89E+05 | Odor Threshold ([1]; Table 10, woody note): 5.03E−05 μg/l air | Volatility [2, 8]: 36.33 μg/l air | Type [2, 9]: Bottom | Type [2, 3]: Top | Volatility ([2]; Table 10, woody note): 106.28 μg/l air

CC(=O)/C=C/C1C(C)CCC(C)C1(C)C (racemic)
Odor Threshold ([1]; Table 10, woody note): 5.14E−04 μg/l air | Type [2, 3]: Bottom | Volatility ([2]; Table 10, woody note): 20.50 μg/l air

C=C(C)CC(C(C)=O)C(=O)OCC (racemic)
Odor Threshold (μg/l air) [1, 7]: 3.64E−03 μg/l air | Volatility [2, 8]: 295.22 μg/l air | Type [2, 9]: TOP (perfuming compounds having a volatility ranging from 70,000 to 100 μg/l in air are referred to as “top notes”) | Type [2, 10]: Top | Volatility (μg/l air) [2, 7]: 295.22 μg/l air
